Measurements: paper PMC9898036, “VIP152 is a selective CDK9 inhibitor with pre-clinical in vitro and in vivo efficacy in chronic lymphocytic leukemia” (Leukemia, 2022)

Columns and labels:
SRC = SRC (Homo sapiens, UniProt P12931); assay: KINOMEscan: SRC; type: binding; settings: 100 nM, read-out: Percent Control
Adrenergic α1D = Adrenergic α1D (Homo sapiens, UniProt P25100); assay: Eurofins Diversity Panel; type: binding; settings: hum, Conc. 10 μM
FGFR3 = FGFR3 (Homo sapiens, UniProt P22607); assay: KINOMEscan: FGFR3; type: binding; settings: 1000 nM, read-out: Percent Control
Adenosine A2A = Adenosine A2A (Homo sapiens, UniProt P29274); assay: Eurofins Diversity Panel; type: binding; settings: hum, Conc. 10 μM
MARK2 = MARK2 (Homo sapiens, UniProt Q7KZI7); assay: KINOMEscan: MARK2; type: binding; settings: 1000 nM, read-out: Percent Control
FGFR3(G697C) = FGFR3(G697C) (Homo sapiens, UniProt P22607, G697C); assay: KINOMEscan: FGFR3(G697C); type: binding; settings: 1000 nM, read-out: Percent Control
TAOK1 = TAOK1 (Homo sapiens, UniProt Q7L7X3); assay: KINOMEscan: TAOK1; type: binding; settings: 100 nM, read-out: Percent Control
EPHA8 = EPHA8 (Homo sapiens, UniProt P29322); assay: KINOMEscan: EPHA8; type: binding; settings: 1000 nM, read-out: Percent Control
WEE2 = WEE2 (Homo sapiens, UniProt P0C1S8); assay: KINOMEscan: WEE2; type: binding; settings: 100 nM, read-out: Percent Control
SRPK2 = SRPK2 (Homo sapiens, UniProt P78362); assay: KINOMEscan: SRPK2; type: binding; settings: 100 nM, read-out: Percent Control
[1] = molecular target: RSK2(Kin.Dom.2-C-terminal) (Homo sapiens, UniProt P51812); assay: KINOMEscan: RSK2(Kin.Dom.2-C-terminal); type: binding; settings: 100 nM, read-out: Percent Control
ABL2 = ABL2 (Homo sapiens, UniProt P42684); assay: KINOMEscan: ABL2; type: binding; settings: 1000 nM, read-out: Percent Control
[2] = molecular target: Epidermal Growth Factor (EGF) (Homo sapiens, UniProt P00533); assay: Eurofins Diversity Panel; type: binding; settings: hum, Conc. 10 μM
RIOK3 = RIOK3 (Homo sapiens, UniProt O14730); assay: KINOMEscan: RIOK3; type: binding; settings: 100 nM, read-out: Percent Control
AKT3 = AKT3 (Homo sapiens, UniProt Q9Y243); assay: KINOMEscan: AKT3; type: binding; settings: 1000 nM, read-out: Percent Control
CDK9 = CDK9 (Homo sapiens, UniProt P50750); assay: KINOMEscan: CDK9; type: binding
Method: The structure and synthesis of VIP152 were recently described by Lücking et al.. (Fig. 1A); however, the selectivity of the molecule in cellular systems has yet to be explored. […] We also performed this experiment at 1000 nM, where CDK9 was inhibited at 99%. […] We found a strong concordance between our data and those of Lücking when comparing the most inhibited kinases. Potential off-target effects of VIP152 were next tested in vitro at a concentration of 10 µM for off-target activity against a broad range of receptors, transporters, ion channels, and enzymes (n = 138) using the Eurofins Diversity Panel.
Kinomescan Kinase Profiling Assay
Kinomescan Assay was performed at DiscoverRX and described in Fabian, et al. 2005, Nat.
Biotechnol. In brief, kinases were produced and subsequently tagged with DNA for qPCR detection.
Streptavidin-coated magnetic beads were bound to biotinylated kinase ligands to serve as a solid support.
VIP152 was dissolved in DMSO and tested across a 10 serial threefold dilution set and compared to a test compound and a DMSO control. Kinases which were inhibited by VIP152 would not be bound to the solid-support resulting in decreased substrate for the qPCR reaction. Kinome map was produced via TreeSpot Analysis from DiscoverRX. […]
NanoBRETTM Target Engagement Assay Protocol […]
Complete 20X NanoBRET Tracer Reagent was prepared with Tracer Dilution Buffer and dispensed at a ratio of 1:20 Reagent to cells in the tube. The cell

CLK2 = CLK2 (Homo sapiens, UniProt P49760); assay: KINOMEscan: CLK2; type: binding; settings: 1000 nM, read-out: Percent Control
YSK4 = YSK4 (Homo sapiens, UniProt Q56UN5); assay: KINOMEscan: YSK4; type: binding; settings: 100 nM, read-out: Percent Control
BIKE = BIKE (Homo sapiens, UniProt Q9NSY1); assay: KINOMEscan: BIKE; type: binding; settings: 1000 nM, read-out: Percent Control
[3] = test system: Calcium Channel L-Type, Benzothiazepine; assay: Eurofins Diversity Panel; type: binding; settings: rat, Conc. 10 μM
Dopamine D1 = Dopamine D1 (Homo sapiens, UniProt P21728); assay: Eurofins Diversity Panel; type: binding; settings: hum, Conc. 10 μM
Muscarinic M3 = Muscarinic M3 (Homo sapiens, UniProt P20309); assay: Eurofins Diversity Panel; type: binding; settings: hum, Conc. 10 μM
[4] = molecular target: RPS6KA5(Kin.Dom.1-N-terminal) (Homo sapiens, UniProt O75582); assay: KINOMEscan: RPS6KA5(Kin.Dom.1-N-terminal); type: binding; settings: 100 nM, read-out: Percent Control
CSNK1A1 = CSNK1A1 (Homo sapiens, UniProt P48729); assay: KINOMEscan: CSNK1A1; type: binding; settings: 1000 nM, read-out: Percent Control
RIOK1 = RIOK1 (Homo sapiens, UniProt Q9BRS2); assay: KINOMEscan: RIOK1; type: binding; settings: 100 nM, read-out: Percent Control
Nicotinic Acetylcholine = assay: Eurofins Diversity Panel; type: binding, human; settings: hum, Conc. 10 μM
MEK3 = MEK3 (Homo sapiens, UniProt P46734); assay: KINOMEscan: MEK3; type: binding; settings: 1000 nM, read-out: Percent Control
DCAMKL2 = DCAMKL2 (Homo sapiens, UniProt Q8N568); assay: KINOMEscan: DCAMKL2; type: binding; settings: 1000 nM, read-out: Percent Control
ADCK4 = ADCK4 (Homo sapiens, UniProt Q96D53); assay: KINOMEscan: ADCK4; type: binding; settings: 1000 nM, read-out: Percent Control
Histamine H3 = Histamine H3 (Homo sapiens, UniProt Q9Y5N1); assay: Eurofins Diversity Panel; type: binding; settings: hum, Conc. 10 μM
BUB1 = BUB1 (Homo sapiens, UniProt O43683); assay: KINOMEscan: BUB1; type: binding; settings: 1000 nM, read-out: Percent Control
TYRO3 = TYRO3 (Homo sapiens, UniProt Q06418); assay: KINOMEscan: TYRO3; type: binding; settings: 100 nM, read-out: Percent Control
TAK1 = TAK1 (Homo sapiens, UniProt O43318); assay: KINOMEscan: TAK1; type: binding; settings: 100 nM, read-out: Percent Control

Sequence of CDK9 (P50750 whole entry): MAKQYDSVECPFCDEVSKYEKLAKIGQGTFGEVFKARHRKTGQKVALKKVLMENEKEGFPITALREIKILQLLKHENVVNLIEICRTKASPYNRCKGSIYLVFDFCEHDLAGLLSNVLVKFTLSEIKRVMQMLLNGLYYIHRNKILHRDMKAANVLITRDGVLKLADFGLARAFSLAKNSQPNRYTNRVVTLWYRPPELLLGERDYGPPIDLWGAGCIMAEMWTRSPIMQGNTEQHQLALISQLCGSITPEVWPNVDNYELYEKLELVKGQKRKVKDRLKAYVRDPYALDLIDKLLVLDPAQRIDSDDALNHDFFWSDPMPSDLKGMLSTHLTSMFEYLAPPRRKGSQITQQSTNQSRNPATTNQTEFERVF
Sequence of RIOK1 (Q9BRS2 whole entry): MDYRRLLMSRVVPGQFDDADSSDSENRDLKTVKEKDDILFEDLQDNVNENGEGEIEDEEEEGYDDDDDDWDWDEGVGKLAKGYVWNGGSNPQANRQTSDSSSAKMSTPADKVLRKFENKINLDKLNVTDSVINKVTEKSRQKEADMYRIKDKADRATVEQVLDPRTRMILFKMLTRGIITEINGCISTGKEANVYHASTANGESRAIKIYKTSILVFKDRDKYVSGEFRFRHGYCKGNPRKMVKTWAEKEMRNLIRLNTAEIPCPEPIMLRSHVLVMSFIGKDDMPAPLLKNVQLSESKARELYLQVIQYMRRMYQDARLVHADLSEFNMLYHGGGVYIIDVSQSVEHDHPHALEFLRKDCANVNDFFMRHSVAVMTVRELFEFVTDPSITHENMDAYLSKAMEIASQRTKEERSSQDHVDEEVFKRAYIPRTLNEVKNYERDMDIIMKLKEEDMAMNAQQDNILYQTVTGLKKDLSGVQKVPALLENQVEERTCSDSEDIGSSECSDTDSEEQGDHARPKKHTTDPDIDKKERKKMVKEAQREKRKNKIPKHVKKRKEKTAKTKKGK
Sequence of DCAMKL2 (Q8N568 whole entry): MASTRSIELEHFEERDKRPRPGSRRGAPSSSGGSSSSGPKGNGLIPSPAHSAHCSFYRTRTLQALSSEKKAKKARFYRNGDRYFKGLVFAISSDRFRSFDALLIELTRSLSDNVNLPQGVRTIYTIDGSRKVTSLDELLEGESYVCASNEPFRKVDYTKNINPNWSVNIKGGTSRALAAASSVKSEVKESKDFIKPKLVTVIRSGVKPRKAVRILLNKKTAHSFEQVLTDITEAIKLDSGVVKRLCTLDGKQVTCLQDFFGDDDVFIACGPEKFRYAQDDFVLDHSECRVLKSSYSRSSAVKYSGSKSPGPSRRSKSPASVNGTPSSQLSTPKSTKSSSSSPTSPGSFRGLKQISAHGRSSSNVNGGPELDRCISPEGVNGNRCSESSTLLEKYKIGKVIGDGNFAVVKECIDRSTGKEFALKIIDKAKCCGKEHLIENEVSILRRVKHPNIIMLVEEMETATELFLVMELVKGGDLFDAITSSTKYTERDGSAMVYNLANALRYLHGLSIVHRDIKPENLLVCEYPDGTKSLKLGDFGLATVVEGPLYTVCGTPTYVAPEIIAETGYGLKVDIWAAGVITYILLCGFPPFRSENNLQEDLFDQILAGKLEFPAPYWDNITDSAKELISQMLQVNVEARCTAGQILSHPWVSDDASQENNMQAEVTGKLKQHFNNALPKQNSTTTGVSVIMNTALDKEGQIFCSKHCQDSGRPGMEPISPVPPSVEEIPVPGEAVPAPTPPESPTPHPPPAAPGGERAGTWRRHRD
Sequence of RIOK3 (O14730 whole entry): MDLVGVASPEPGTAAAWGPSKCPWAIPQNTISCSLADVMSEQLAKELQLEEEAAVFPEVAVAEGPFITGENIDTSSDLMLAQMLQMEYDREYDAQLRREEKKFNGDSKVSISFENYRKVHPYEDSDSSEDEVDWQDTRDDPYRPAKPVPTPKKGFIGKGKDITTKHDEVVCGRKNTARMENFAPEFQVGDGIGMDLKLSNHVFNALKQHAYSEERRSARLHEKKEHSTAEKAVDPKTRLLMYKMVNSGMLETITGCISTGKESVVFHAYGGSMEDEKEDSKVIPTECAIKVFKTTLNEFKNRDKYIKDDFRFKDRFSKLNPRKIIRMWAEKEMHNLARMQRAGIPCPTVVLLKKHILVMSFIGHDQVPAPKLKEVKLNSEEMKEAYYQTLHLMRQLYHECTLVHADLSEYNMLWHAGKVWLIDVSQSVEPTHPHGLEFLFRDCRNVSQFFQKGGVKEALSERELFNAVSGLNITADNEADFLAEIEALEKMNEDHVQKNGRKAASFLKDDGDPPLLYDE
Sequence of YSK4 (Q56UN5 whole entry): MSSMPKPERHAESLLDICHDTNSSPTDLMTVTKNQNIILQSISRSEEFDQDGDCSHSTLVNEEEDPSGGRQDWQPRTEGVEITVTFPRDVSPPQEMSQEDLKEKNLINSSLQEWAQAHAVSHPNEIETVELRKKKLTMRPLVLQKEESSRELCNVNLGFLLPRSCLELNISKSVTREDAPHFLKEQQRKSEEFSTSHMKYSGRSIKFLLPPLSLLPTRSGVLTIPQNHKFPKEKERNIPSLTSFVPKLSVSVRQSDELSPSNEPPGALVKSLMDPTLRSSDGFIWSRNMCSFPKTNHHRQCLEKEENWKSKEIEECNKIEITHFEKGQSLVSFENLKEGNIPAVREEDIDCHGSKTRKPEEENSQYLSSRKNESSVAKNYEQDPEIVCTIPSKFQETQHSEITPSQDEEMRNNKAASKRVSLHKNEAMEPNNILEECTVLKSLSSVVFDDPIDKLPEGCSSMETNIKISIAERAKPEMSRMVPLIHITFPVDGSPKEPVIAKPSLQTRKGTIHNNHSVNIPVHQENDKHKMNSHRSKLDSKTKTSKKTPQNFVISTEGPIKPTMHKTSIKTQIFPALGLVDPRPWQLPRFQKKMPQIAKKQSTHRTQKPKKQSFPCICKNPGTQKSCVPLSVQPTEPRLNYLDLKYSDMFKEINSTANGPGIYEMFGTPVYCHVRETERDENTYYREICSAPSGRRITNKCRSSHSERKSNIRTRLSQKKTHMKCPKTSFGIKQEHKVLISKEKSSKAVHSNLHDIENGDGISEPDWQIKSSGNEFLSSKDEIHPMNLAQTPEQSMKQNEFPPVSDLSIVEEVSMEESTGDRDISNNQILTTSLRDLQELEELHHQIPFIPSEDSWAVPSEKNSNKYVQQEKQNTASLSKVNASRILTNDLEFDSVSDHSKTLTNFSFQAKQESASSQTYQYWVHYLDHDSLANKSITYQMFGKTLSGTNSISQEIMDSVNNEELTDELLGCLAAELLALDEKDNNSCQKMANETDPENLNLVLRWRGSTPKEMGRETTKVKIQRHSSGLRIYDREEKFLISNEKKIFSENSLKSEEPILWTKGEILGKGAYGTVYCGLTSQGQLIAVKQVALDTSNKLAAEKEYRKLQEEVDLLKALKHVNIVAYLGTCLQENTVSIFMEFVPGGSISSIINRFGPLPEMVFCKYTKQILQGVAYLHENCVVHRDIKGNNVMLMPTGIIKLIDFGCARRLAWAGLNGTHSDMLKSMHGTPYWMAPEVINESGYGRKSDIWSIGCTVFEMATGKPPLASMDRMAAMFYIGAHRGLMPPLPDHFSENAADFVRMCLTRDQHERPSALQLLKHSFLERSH
Sequence of FGFR3 (P22607 23-806): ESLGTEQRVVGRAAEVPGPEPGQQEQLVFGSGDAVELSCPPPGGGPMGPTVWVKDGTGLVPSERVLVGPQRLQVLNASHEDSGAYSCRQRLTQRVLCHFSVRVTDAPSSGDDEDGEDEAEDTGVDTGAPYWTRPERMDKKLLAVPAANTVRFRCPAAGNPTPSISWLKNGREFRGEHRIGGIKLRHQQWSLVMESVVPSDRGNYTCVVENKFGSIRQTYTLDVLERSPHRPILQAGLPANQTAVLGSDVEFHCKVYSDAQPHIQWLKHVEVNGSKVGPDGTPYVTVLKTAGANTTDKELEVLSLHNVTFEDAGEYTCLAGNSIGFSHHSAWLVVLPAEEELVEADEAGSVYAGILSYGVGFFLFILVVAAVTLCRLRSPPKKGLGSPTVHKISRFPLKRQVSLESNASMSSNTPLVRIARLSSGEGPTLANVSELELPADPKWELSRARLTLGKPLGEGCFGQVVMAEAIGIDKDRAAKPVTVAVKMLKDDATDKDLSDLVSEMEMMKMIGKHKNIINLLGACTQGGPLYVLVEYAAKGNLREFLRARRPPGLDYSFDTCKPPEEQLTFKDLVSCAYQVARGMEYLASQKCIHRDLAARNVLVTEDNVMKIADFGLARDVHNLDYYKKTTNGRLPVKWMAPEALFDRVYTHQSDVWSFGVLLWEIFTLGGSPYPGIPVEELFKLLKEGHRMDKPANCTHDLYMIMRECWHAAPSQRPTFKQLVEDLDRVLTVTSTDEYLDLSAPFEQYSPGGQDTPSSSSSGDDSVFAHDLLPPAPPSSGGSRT
Sequence of Histamine H3 (Q9Y5N1 whole entry): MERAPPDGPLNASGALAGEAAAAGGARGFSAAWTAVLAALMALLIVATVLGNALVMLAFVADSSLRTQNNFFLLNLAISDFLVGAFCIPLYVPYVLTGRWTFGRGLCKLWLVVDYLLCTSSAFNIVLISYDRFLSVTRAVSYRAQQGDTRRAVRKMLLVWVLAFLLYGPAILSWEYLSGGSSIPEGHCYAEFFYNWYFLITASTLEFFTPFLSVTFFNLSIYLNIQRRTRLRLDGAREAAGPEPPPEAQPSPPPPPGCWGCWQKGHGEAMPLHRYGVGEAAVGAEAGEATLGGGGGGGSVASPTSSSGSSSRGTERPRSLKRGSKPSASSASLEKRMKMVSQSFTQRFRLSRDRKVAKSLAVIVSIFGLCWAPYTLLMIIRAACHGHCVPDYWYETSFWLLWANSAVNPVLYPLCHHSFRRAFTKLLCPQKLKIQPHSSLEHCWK
Sequence of FGFR3(G697C) (P22607 23-806 G697C): as the sequence (P22607 23-806) above, with G675C counted along it

COc1cc(F)ccc1-c1cc(Nc2cc(CS(C)(=N)=O)ccn2)ncc1F (stereo not shown) [VIP152] showed a remaining binding at 0.1 µM (SRC) of 100%, an inhibition at 10 µM (Adrenergic α1D) of 19% and a remaining binding at 1 µM (FGFR3) of 75%. It also gave an inhibition at 10 µM (Adenosine A2A) of 22%, a remaining binding at 1 µM (MARK2) of 81% and a remaining binding at 1 µM (FGFR3(G697C)) of 63%. It also gave a remaining binding at 0.1 µM (TAOK1) of 92%, a remaining binding at 1 µM (EPHA8) of 100% and a remaining binding at 0.1 µM (WEE2) of 100%. It also gave a remaining binding at 0.1 µM (SRPK2) of 100%, a remaining binding at 0.1 µM [1] of 100% and a remaining binding at 1 µM (ABL2) of 65%. For the same compound, the inhibition at 10 µM [2] was -15%, the remaining binding at 0.1 µM (RIOK3) was 100% and the remaining binding at 1 µM (AKT3) was 98%. For the same compound, the “inhibition of CDK9 greater than that of CDK7” value (CDK9; 100 nM) was 7 fold, the inhibition at 0.1 µM (CDK9; 100 nM, read-out: inhibition of CDK9 activity compared with control) was 95.3% and the inhibition at 1 µM (CDK9; 1000 nM) was 99%. It also gave a remaining binding at 0.1 µM (CDK9; CDK9, 100 nM, read-out: Percent Control) of 4.7%, a remaining binding at 1 µM (CDK9; CDK9, 1000 nM, read-out: Percent Control) of 1% and a remaining binding at 1 µM (CLK2) of 82%. For the same compound, the remaining binding at 0.1 µM (YSK4) was 100%, the remaining binding at 1 µM (BIKE) was 38% and the “% Inh.” value [3] was 16%. The inhibition at 10 µM (Dopamine D1) was 14%, the inhibition at 10 µM (Muscarinic M3) was 3% and the remaining binding at 0.1 µM [4] was 100%. The remaining binding at 1 µM (CSNK1A1) was 95%, the remaining binding at 0.1 µM (RIOK1) was 100% and the “% Inh.” value (Nicotinic Acetylcholine) was -9%. It also gave a remaining binding at 1 µM (MEK3) of 84%, a remaining binding at 1 µM (DCAMKL2) of 96% and a remaining binding at 1 µM (ADCK4) of 82%. It also gave an inhibition at 10 µM (Histamine H3) of -4%, a remaining binding at 1 µM (BUB1) of 7.1% and a remaining binding at 0.1 µM (TYRO3) of 100%. For the same compound, the remaining binding at 0.1 µM (TAK1) was 97%.
